Experimental data as given in PubChem BioAssay (NCI).
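Five concentrations, 48 hours, 96-well plates. TGI is the concentration that stops growth completely.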

How the values were obtained:
Test in all cases: NCI-60 cell line screen, 48 h
786-0 renal = system: 786-0 renal
A498 renal = system: A498 renal
A549 NSCLC = system: A549 NSCLC
ACHN renal = system: ACHN renal
BT-549 breast = system: BT-549 breast
CAKI-1 renal = system: CAKI-1 renal
CCRF-CEM leukemia = system: CCRF-CEM leukemia
COLO 205 colon = system: COLO 205 colon
DU-145 prostate = system: DU-145 prostate
EKVX NSCLC = system: EKVX NSCLC
HCC-2998 colon = system: HCC-2998 colon
HCT-116 colon = system: HCT-116 colon
HCT-15 colon = system: HCT-15 colon
HL-60(TB) leukemia = system: HL-60(TB) leukemia
HOP-62 NSCLC = system: HOP-62 NSCLC
HOP-92 NSCLC = system: HOP-92 NSCLC
HS 578T breast = system: HS 578T breast
HT29 colon = system: HT29 colon
IGROV1 ovarian = system: IGROV1 ovarian
K-562 leukemia = system: K-562 leukemia
KM12 colon = system: KM12 colon
LOX IMVI melanoma = system: LOX IMVI melanoma
M14 melanoma = system: M14 melanoma
MALME-3M melanoma = system: MALME-3M melanoma
MCF7 breast = system: MCF7 breast
MDA-MB-231 breast = system: MDA-MB-231 breast
MDA-MB-435 = system: MDA-MB-435
MDA-N = system: MDA-N
MOLT-4 leukemia = system: MOLT-4 leukemia
NCI-H226 lung = system: NCI-H226 lung
NCI-H23 lung = system: NCI-H23 lung
NCI-H460 lung = system: NCI-H460 lung
NCI-H522 lung = system: NCI-H522 lung
NCI/ADR-RES ovarian = system: NCI/ADR-RES ovarian
OVCAR-3 ovarian = system: OVCAR-3 ovarian
OVCAR-4 ovarian = system: OVCAR-4 ovarian
OVCAR-5 ovarian = system: OVCAR-5 ovarian
OVCAR-8 ovarian = system: OVCAR-8 ovarian
PC-3 prostate = system: PC-3 prostate
RPMI-8226 leukemia = system: RPMI-8226 leukemia
RXF 393 renal = system: RXF 393 renal
SF-268 CNS = system: SF-268 CNS
SF-295 CNS = system: SF-295 CNS
SF-539 CNS = system: SF-539 CNS
SK-MEL-28 melanoma = system: SK-MEL-28 melanoma
SK-MEL-5 melanoma = system: SK-MEL-5 melanoma
SN12C renal = system: SN12C renal
SNB-75 CNS = system: SNB-75 CNS
SR leukemia = system: SR leukemia
SW-620 colon = system: SW-620 colon
T-47D breast = system: T-47D breast
U251 CNS = system: U251 CNS
UACC-257 melanoma = system: UACC-257 melanoma
UO-31 renal = system: UO-31 renal

Measured: TGI

O=C1CC(CC(O)C(O)C(O)CO)CC(=O)N1 (centres undefined)
> 100 µM: all assays above
